Reference: ChEMBL document CHEMBL2375237, “Optimization of allosteric MEK inhibitors. Part 1: Venturing into underexplored SAR territories” (Bioorg Med Chem Lett, 2013)
The source made the active and inactive calls. The calls are words filed in the database; no cut-off is given here.

Experiments:
A-375 = test: cells; conditions: Homo sapiens, A-375, 72 h
Description: Antiproliferative activity against human A375 cells expressing BRAF V600E mutant after 72 hrs by Cell titer-glo assay

[1] = target: Dual specificity mitogen-activated protein kinase kinase 1 (Homo sapiens, UniProt Q02750); test: Inhibition of MEK1 (unknown origin) after 2 hrs by fluorescence assay
HCT-116 [2] = test: Antiproliferative activity against human HCT116 cells expressing KRAS G13D mutant; format: functional, cell-based
[3] = Blood clearance in rat at 0.5 mg/kg, iv and 1 mg/kg, po; format: ADME, organism-based; conditions: whole blood
[4] = Volume of distribution at steady state in rat at 0.5 mg/kg, iv and 1 mg/kg, po; format: ADME, organism-based; conditions: in vivo, read-out: Vdss
[5] = Terminal half life in rat at 0.5 mg/kg, iv and 1 mg/kg, po; format: ADME, organism-based; conditions: in vivo, read-out: beta t1/2 (converted)
[6] = Ratio of AUC in mouse brain to AUC in mouse plasma at 5 mg/kg, iv up to 3 hrs; format: ADME, organism-based; set-up: dose 5 mg/kg, route intravenous; conditions: read-out: Ratio AUC
[7] = Oral bioavailability in rat at 1 mg/kg; format: ADME, organism-based; conditions: in vivo
A549 [8] = test: Antiproliferative activity against human A549 cells; format: functional, cell-based
[9] = Oral bioavailability in rat at 5 mg/kg; format: ADME, organism-based; conditions: in vivo
[10] = Volume of distribution at steady state in rat at 0.5 mg/kg, iv and 5 mg/kg, po; format: ADME, organism-based; conditions: in vivo, read-out: Vdss
LoVo = test: Antiproliferative activity against human LoVo cells; format: functional, cell-based
MIA PaCa-2 = test: Antiproliferative activity against human MIAPaCa2 cells; format: functional, cell-based
[11] = Terminal half life in rat at 0.5 mg/kg, iv and 5 mg/kg, po; format: ADME, organism-based; conditions: in vivo, read-out: beta t1/2 (converted)
[12] = Blood clearance in rat at 0.5 mg/kg, iv and 5 mg/kg, po; format: ADME, organism-based; conditions: whole blood
A549 [13] = conditions: Homo sapiens
Description: Antitumor activity against human A549 cells xenografted in nude mouse assessed as tumor growth inhibition at 3 mg/kg, po qd

Caco-2 = test: Efflux ratio of permeability in human Caco2 cells relative to control; format: ADME, cell-based
[14] = Terminal half life in rat at 0.3 mg/kg, iv and 0.6 mg/kg, po; format: ADME, organism-based; conditions: in vivo, read-out: beta t1/2 (converted)
[15] = Volume of distribution at steady state in rat at 0.3 mg/kg, iv and 0.6 mg/kg, po; format: ADME, organism-based; conditions: in vivo, read-out: Vdss
[16] = Blood clearance in rat at 0.3 mg/kg, iv and 0.6 mg/kg, po; format: ADME, organism-based; conditions: whole blood
[17] = Oral bioavailability in rat at 0.6 mg/kg; format: ADME, organism-based; conditions: in vivo
[18] = Blood clearance in rat at 1 mg/kg, iv; format: ADME, organism-based; set-up: dose 1 mg/kg, route intravenous; conditions: whole blood
[19] = Drug metabolism in liver microsomes (unknown origin) assessed as demethylation of the sulfamide moiety; format: ADME, Microsome
[20] = Oral bioavailability in rat; format: ADME, organism-based; conditions: in vivo
[21] = Terminal half life in rat at 1 mg/kg, iv; format: ADME, organism-based; set-up: dose 1 mg/kg, route intravenous; conditions: in vivo, read-out: beta t1/2 (converted)
[22] = Drug metabolism in hepatocytes (unknown origin) assessed as demethylation of the sulfamide moiety; format: ADME, cell-based, Hepatocyte
[23] = Volume of distribution at steady state in rat at 1 mg/kg, iv and 1 mg/kg, po; format: ADME, organism-based; conditions: in vivo, read-out: Vdss
[24] = Terminal half life in mouse; format: ADME, organism-based; conditions: in vivo, read-out: beta t1/2 (converted)
HCT-116 [25] = test: Ratio of AZD6244 IC50 to compound IC50 for human HCT116 cells expressing KRAS G13D mutant; format: functional
A549 [26] = conditions: Homo sapiens; remark: listed apart in the source
Description: Antitumor activity against human A549 cells xenografted in nude mouse assessed as tumor growth inhibition at 1 mg/kg, po qd

A549 [27] = conditions: Homo sapiens; remark: listed apart in the source
Description: Antitumor activity against human A549 cells xenografted in nude mouse assessed as tumor growth inhibition at 1 mg/kg, po administered every other day

[28] = Blood clearance in rat at 1 mg/kg, iv and 1 mg/kg, po; format: ADME, organism-based; conditions: whole blood
[29] = Terminal half life in rat at 1 mg/kg, iv and 1 mg/kg, po; format: ADME, organism-based; conditions: in vivo, read-out: beta t1/2 (converted)
[30] = Terminal half life in dog; format: ADME, organism-based, Canis lupus familiaris; conditions: in vivo, read-out: beta t1/2 (converted)

Sequence of Dual specificity mitogen-activated protein kinase kinase 1 (Q02750 whole entry): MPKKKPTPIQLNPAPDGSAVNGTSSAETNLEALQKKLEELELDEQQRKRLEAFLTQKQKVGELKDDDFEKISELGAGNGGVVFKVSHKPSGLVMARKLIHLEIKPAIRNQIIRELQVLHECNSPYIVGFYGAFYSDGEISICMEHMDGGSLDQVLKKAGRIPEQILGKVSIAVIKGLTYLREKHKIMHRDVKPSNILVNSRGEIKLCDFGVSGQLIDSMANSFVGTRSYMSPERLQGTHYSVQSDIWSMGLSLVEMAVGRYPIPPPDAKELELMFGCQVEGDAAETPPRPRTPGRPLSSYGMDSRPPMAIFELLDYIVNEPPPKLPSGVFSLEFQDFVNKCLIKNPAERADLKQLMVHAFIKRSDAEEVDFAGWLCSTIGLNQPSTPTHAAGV

IC50 (A-375) [nM]	IC50 [1] [nM]	IC50 (HCT-116 [2]) [nM]	SMILES	other results
350	63		NC(=O)c1c(Nc2ccc(I)cc2F)cc(F)cc1OC[C@H](O)CCO	
40	43	2450	CC(C)(O)C(O)CCOc1cc(F)cc(Nc2ccc(I)cc2F)c1C(N)=O (stereo unspecified)	
< 30	15	287	CCS(=O)(=O)Nc1cccc(Oc2cc(F)cc(Nc3ccc(I)cc3F)c2C(N)=O)c1	
1120	1000		CN(C)S(=O)(=O)N1CCC[C@H]1COc1cc(F)cc(Nc2ccc(I)cc2F)c1C(N)=O	
148		3400	NC(=O)c1c(Nc2ccc(I)cc2F)cc(F)cc1OCC[C@@H](O)CO	clearance [3]: 24.8 mL/min/kg; Vd [4]: 4.4 L/kg; half-life [5]: 2.4 h; Kp at 3 h [6]: 0.73; bioavailability [7]: 70%
240			NC(=O)c1c(Nc2ccc(I)cc2F)cc(F)cc1OCC[C@H](O)CO	
323			CCS(=O)(=O)N1CCC[C@H]1COc1cc(F)cc(Nc2ccc(I)cc2F)c1C(N)=O	
23	21	3800	CS(=O)(=O)Nc1cccc(Oc2cc(F)cc(Nc3ccc(I)cc3F)c2C(N)=O)c1	
973			CN1CCC[C@H]1COc1cc(F)cc(Nc2ccc(I)cc2F)c1C(N)=O	
124	26	3030	NC(=O)c1c(Nc2ccc(I)cc2F)cc(F)cc1OC[C@@H]1CCCN1	
37	32	3490	NC(=O)c1c(Nc2ccc(I)cc2F)cc(F)cc1Oc1cccc(CS(N)(=O)=O)c1	
240			CC(O)(CO)CCOc1cc(F)cc(Nc2ccc(I)cc2F)c1C(N)=O (stereo unspecified)	
28	21	412	NC(=O)c1c(Nc2ccc(I)cc2F)cc(F)cc1Oc1cccc(NS(=O)(=O)N2CCCC2)c1	
18	21	155	CN(C)S(=O)(=O)Nc1cccc(Oc2cc(F)cc(Nc3ccc(I)cc3F)c2C(N)=O)c1	clearance [18]: 35 mL/min/kg; Drug metabolism [19]: Active; bioavailability [20]: 55%; half-life [21]: 2.2 h; Drug metabolism [22]: Active
172	73	3040	NC(=O)c1c(Nc2ccc(I)cc2F)cc(F)cc1OC[C@@H]1CCCN1S(N)(=O)=O	
17	18	459	CC(C)S(=O)(=O)Nc1cccc(Oc2cc(F)cc(Nc3ccc(I)cc3F)c2C(N)=O)c1	
354	74		COc1cc(F)cc(Nc2ccc(I)cc2F)c1C(N)=O	

Continued, molecule first:

SMILES	IC50 (A-375) [nM]	IC50 [1] [nM]	IC50 (HCT-116 [2]) [nM]	other results
NC(=O)c1c(Nc2ccc(I)cc2F)cc(F)cc1Oc1ccc2cn[nH]c2c1	221	54		
CC(=O)Nc1ccc(Oc2cc(F)cc(Nc3ccc(I)cc3F)c2C(N)=O)cc1	808	539		
NC(=O)c1c(Nc2ccc(I)cc2F)cc(F)cc1Oc1ccc2oc(=O)[nH]c2c1	35	36	4510	
Cn1cnc2c(F)c(Nc3ccc(Br)cc3Cl)c(C(=O)NOCCO)cc21 [SELUMETINIB]	31		3100	IC50 (A549 [8]): 1750 nM; bioavailability [9]: 14%; Vd [10]: 0.2 L/kg; Kp at 3 h [6]: < 0.02; IC50 (LoVo): 2830 nM; IC50 (MIA PaCa-2): 142 nM; half-life [11]: 3.8 h; clearance [12]: 1 mL/min/kg
O=C(NOC[C@H](O)CO)c1ccc(F)c(F)c1Nc1ccc(I)cc1F [MIRDAMETINIB]				TGI (A549 [13]): Active; clearance [3]: 8.33 mL/min/kg; Vd [4]: 1.7 L/kg; half-life [5]: 5.4 h; bioavailability [7]: 104%
CNS(=O)(=O)Nc1cccc(Oc2cc(F)cc(Nc3ccc(I)cc3F)c2C(N)=O)c1	16		103	
NC(=O)c1c(Nc2ccc(I)cc2F)cc(F)cc1OCC[C@@H](O)Cn1ccnc1	98	16	1250	fold change (FC) (Caco-2): 10; Kp at 3 h [6]: 0.04; half-life [14]: 8.4 h; Vd [15]: 10.3 L/kg; clearance [16]: 9.67 mL/min/kg; bioavailability [17]: 20%
CC(=O)Nc1cccc(Oc2cc(F)cc(Nc3ccc(I)cc3F)c2C(N)=O)c1	50		2290	
NC(=O)c1c(Nc2ccc(I)cc2F)cc(F)cc1Oc1ccccc1	408	99		
CC(C)C(=O)Nc1cccc(Oc2cc(F)cc(Nc3ccc(I)cc3F)c2C(N)=O)c1	192	48	8810	
NC(=O)c1c(Nc2ccc(I)cc2F)cc(F)cc1Oc1cccc(NS(N)(=O)=O)c1	4	14	180	Vd [23]: 2 L/kg; IC50 (A549 [8]): 132 nM; half-life [24]: 34 h; Kp at 3 h [6]: < 0.02; Ratio IC50 (HCT-116 [25]): >=10; IC50 (LoVo): 175 nM; TGI (A549 [26]): Active; TGI (A549 [27]): Active; clearance [28]: 0.5 mL/min/kg; IC50 (MIA PaCa-2): 23 nM; bioavailability [7]: 62%; half-life [29]: 32 h; half-life [30]: 110 h
NC(=O)c1c(Nc2ccc(I)cc2F)cc(F)cc1Oc1cccnc1	141	76	4180	
NC(=O)c1c(Nc2ccc(I)cc2F)cc(F)cc1OCC[C@@H](O)Cn1cccn1	151	13	2070	
